According to US20050119253A1, “Method of treating mental disorders using of D4 and 5-HT2A antagonists, inverse agonists or partial agonists” (priority 2003, published 2005):
Blank lines part the entries; values can stand above or below the compound they belong to.

How the values were obtained:
D3 = D3 (Homo sapiens, UniProt P35462); assay: pKi of test compounds, D3 receptor; type: binding; conditions: read-out: pKi D3 (converted)
D4 receptor = target: T1, D4 receptor (Homo sapiens, UniProt P21917); assay: pKi of test compounds, D4 receptor; type: binding; conditions: D4; read-out: pKi D4 (converted)
T1 sequence (P21917 1-419): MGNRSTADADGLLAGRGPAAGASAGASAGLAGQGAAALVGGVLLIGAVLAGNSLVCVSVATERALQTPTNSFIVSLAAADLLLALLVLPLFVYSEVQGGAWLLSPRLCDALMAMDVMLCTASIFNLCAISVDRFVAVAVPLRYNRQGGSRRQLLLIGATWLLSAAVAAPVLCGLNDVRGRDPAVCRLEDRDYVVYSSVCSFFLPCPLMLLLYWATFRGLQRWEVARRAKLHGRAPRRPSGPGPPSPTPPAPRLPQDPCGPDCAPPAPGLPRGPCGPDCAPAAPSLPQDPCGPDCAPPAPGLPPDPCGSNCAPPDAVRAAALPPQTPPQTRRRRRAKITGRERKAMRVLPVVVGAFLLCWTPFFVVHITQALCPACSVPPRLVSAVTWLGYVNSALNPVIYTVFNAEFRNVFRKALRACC

5HT1A = target: T2, 5HT1A (Homo sapiens, UniProt P08908); assay: pKi of test compounds, 5HT1A receptor; type: binding
T2 sequence (P08908 1-422): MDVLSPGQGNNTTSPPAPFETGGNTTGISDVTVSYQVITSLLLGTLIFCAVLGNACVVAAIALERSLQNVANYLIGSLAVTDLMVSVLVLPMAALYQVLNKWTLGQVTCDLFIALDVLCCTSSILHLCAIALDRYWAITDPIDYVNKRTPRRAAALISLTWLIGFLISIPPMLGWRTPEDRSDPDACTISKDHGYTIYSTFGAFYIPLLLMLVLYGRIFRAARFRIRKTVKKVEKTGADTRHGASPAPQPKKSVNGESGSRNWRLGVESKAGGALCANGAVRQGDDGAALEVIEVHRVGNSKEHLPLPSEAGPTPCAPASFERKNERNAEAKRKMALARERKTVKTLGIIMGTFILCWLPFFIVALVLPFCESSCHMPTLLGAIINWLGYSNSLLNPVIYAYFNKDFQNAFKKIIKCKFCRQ

5HT1B = 5HT1B (Homo sapiens, UniProt P28222); assay: pKi of test compounds, 5HT1B receptor; type: binding
Sequence of 5HT1B (P28222 whole entry, species assumed): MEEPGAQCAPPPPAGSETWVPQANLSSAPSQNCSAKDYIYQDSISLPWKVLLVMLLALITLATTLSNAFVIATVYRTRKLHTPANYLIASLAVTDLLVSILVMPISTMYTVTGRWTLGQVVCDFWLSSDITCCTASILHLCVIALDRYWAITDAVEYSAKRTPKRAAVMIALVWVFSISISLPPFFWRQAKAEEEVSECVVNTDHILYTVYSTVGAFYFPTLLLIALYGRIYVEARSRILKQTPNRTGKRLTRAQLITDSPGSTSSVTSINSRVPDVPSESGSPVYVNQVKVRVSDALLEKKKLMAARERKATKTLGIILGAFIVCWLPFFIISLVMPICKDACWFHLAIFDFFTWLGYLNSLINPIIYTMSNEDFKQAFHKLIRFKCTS

5HT1D = 5HT1D (Homo sapiens, UniProt P28221); assay: pKi of test compounds, 5HT1D receptor; type: binding; conditions: read-out: pKi 5HT1D (converted)
Sequence of 5HT1D (P28221 whole entry, species assumed): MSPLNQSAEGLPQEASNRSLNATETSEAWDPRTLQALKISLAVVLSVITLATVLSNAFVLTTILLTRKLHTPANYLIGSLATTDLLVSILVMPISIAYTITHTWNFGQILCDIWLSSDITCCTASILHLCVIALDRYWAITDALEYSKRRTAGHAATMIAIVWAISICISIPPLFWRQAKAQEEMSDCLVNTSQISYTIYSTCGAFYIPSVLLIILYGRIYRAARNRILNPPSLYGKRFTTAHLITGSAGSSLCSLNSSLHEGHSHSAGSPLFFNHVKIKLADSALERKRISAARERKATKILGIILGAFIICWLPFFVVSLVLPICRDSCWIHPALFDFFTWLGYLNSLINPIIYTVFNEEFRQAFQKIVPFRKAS

5HT1E = 5HT1E (Homo sapiens, UniProt P28566); assay: pKi of test compounds, 5HT1E receptor; type: binding
Sequence of 5HT1E (P28566 whole entry, species assumed): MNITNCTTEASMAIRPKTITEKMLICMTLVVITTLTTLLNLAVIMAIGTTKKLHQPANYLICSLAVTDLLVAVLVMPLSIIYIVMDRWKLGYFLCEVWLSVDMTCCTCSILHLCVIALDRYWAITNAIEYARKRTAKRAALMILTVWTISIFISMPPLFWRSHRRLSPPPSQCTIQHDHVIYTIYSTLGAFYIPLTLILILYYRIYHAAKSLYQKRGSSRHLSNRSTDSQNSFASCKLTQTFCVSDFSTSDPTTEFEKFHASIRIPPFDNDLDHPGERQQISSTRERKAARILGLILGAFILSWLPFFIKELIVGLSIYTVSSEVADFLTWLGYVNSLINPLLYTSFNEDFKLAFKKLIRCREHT

5HT1F = 5HT1F (Homo sapiens, UniProt P30939); assay: pKi of test compounds, 5HT1F receptor; type: binding
Sequence of 5HT1F (P30939 whole entry, species assumed): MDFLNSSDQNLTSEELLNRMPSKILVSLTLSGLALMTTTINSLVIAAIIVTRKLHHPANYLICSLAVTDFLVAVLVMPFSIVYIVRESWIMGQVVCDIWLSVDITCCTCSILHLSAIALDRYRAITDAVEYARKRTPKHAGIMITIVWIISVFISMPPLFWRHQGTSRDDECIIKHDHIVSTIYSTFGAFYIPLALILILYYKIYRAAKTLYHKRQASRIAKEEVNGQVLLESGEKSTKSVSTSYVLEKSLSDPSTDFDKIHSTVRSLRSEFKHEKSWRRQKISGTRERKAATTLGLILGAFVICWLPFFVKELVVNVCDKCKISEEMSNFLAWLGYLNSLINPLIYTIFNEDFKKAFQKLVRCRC

Alpha2A = target: T3, Alpha2A (Homo sapiens, UniProt P08913); assay: pKi of test compounds, adrenergic receptor Alpha2A; type: binding
T3 sequence (P08913 1-465): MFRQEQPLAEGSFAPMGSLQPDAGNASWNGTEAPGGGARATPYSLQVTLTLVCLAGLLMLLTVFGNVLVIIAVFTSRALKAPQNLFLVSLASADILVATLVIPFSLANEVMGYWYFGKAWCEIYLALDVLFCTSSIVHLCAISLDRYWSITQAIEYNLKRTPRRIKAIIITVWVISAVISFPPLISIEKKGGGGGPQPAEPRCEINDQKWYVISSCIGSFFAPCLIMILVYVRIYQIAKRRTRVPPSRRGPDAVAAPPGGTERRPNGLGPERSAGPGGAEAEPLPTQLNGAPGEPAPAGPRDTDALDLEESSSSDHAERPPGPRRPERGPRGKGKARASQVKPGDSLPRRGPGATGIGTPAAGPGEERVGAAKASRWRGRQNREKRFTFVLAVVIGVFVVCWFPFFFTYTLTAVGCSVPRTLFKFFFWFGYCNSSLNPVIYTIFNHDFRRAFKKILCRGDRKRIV

Alpha2C = target: T4, Alpha2C (Homo sapiens, UniProt P18825); assay: pKi of test compounds, adrenergic receptor Alpha2C; type: binding
T4 sequence (P18825 1-462): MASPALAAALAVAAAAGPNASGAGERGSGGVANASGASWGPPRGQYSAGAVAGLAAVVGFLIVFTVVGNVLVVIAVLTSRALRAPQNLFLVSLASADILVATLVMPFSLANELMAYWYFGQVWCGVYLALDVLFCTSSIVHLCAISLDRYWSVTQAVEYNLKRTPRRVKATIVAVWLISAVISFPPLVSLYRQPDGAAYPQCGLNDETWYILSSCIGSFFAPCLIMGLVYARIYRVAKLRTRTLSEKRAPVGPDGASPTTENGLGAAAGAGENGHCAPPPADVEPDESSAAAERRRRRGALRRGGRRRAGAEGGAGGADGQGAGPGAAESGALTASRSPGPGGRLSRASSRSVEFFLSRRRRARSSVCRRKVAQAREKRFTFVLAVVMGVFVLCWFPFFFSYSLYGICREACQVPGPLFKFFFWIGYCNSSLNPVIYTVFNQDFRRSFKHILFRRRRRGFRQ

Beta1 = Beta1 (Homo sapiens, UniProt P08588); assay: pKi of test compounds, adrenergic receptor Beta1; type: binding
Sequence of Beta1 (P08588 whole entry): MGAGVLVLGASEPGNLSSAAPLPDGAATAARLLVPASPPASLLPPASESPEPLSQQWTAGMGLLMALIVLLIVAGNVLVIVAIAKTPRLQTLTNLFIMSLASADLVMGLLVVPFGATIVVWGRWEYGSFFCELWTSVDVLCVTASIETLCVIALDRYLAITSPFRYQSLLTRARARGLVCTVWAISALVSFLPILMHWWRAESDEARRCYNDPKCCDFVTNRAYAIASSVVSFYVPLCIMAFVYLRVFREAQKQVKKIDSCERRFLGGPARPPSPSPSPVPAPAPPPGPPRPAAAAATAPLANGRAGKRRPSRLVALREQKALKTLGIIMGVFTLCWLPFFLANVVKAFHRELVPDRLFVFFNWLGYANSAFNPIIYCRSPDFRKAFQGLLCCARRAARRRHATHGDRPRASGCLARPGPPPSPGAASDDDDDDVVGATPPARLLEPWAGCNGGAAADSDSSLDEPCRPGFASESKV

Beta2 = Beta2 (Homo sapiens, UniProt P07550); assay: pKi of test compounds, adrenergic receptor Beta2; type: binding
Sequence of Beta2 (P07550 whole entry): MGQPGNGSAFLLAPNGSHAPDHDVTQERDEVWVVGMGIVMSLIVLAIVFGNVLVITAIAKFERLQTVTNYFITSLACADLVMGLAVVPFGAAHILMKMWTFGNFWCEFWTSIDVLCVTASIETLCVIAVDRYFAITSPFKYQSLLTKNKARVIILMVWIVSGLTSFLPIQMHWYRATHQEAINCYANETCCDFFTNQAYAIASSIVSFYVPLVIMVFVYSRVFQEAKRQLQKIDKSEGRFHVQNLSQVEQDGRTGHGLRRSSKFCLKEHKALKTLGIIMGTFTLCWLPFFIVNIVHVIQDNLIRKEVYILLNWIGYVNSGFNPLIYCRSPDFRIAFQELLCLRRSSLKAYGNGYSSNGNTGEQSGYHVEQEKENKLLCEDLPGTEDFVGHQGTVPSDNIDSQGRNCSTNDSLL

other 5HT receptors = assay: pKi towards other 5HT receptors; type: binding; conditions: 5-HT1A, 1B, 1D, 1E, 1F, 5-HT2B, 5-HT2C, 5-HT6 (rat), 5-HT7 (rat)
other Dopamine receptors = assay: pKi towards other Dopamine receptors; type: binding; conditions: D1, D2 and D3
[1] = metabolite from biotransformation in the liver; cited from earlier work
acute schizophrenia = conditions: neuroleptic responsive inpatients with acute schizophrenia; cited from earlier work

Sequence of D3 (P35462 whole entry): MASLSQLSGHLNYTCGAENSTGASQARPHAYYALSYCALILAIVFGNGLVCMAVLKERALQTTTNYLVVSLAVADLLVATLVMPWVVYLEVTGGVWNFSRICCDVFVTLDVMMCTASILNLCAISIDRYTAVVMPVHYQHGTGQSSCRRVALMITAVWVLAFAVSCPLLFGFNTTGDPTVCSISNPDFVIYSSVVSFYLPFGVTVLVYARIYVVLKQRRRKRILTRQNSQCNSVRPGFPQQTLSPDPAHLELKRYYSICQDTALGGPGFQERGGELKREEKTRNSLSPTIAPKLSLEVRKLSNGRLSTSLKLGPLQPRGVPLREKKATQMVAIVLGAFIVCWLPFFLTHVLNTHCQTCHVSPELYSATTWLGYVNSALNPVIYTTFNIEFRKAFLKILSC

Ki (D3): 100 to 1000 nM | Ki (D4 receptor): 1 to 10 nM | Ki (5HT1A): > 1000 nM | Ki (5HT1B): 100 to 1000 nM | Ki (5HT1D): 100 to 1000 nM | Ki (5HT1E): > 1000 nM | Ki (5HT1F): > 1000 nM | Ki (Alpha2A): 100 to 1000 nM | Ki (Alpha2C): 100 to 1000 nM | Ki (Beta1): > 1000 nM | Ki (Beta2): > 1000 nM | pKi value towards other 5HT receptors (other 5HT receptors): less than 8 | pKi value towards other Dopamine receptors (other Dopamine receptors): less than 8
Compound: NC(=O)C1(N2CCCCC2)CCN(CCCC(=O)c2ccc(F)cc2)CC1 [Pipamperone, 1′-[3-(p-Fluorobenzoyl)propyl]-[1,4′-bipiperidine]-4′-carboxamide]

Compound: Cc1nc2n(c(=O)c1CCN1CCC(c3noc4cc(F)ccc34)CC1)CCCC2O (stereo not drawn) [9-hydroxyrisperidone]
pharmacological activity and intensity relative to parent risperidone [1]: of the same pharmacological activity and intensity as parent risperidone

Compound: Clc1ccc(N2CCN(Cc3c[nH]c4ncccc34)CC2)cc1 [L-745,870]
antipsychotic efficacy (acute schizophrenia): ineffective as an antipsychotic
